From ChEMBL document CHEMBL5532691, “Anti-cancer activity and mechanism of flurbiprofen organoselenium compound RY-1-92 in non-small cell lung cancer” (RSC Med Chem, 2024)
Activity calls are given as the source filed them. The rule behind the calls is not given here.

Experiments:
[1] = test system: NCI-H460; experiment: Induction of apoptosis in human NCI-H460 cells assessed as late apoptotic cells at 30 uM measured after 48 hrs by annexin V-FITC/PI staining based flow cytometry analysis (reference value: 5.41%); type: functional
[2] = test system: NCI-H460; experiment: Induction of apoptosis in human NCI-H460 cells assessed as necrotic cells at 30 uM measured after 48 hrs by annexin V-FITC/PI staining based flow cytometry analysis (reference value: 2.47%); type: functional
[3] = test system: A549; experiment: Downregulation of CDK1 protein expression in human A549 cells at 10 to 30 uM by Western blot analysis; type: functional, cell-based; details: dose 10-30 µM
[4] = test system: A549; experiment: Downregulation of cyclin B1 protein expression in human A549 cells at 10 to 30 uM by Western blot analysis; type: functional, cell-based; details: dose 10-30 µM
[5] = test system: NCI-H460; experiment: Downregulation of CDK1 protein expression in human NCI-H460 cells at 30 uM by Western blot analysis; type: functional, cell-based
[6] = test system: NCI-H460; experiment: Downregulation of cyclin B1 protein expression in human NCI-H460 cells at 30 uM by Western blot analysis; type: functional, cell-based
[7] = test system: A549; experiment: Upregulation of Bax protein expression in human A549 cells at 10 to 30 uM by Western blot analysis; type: functional, cell-based; details: dose 10-30 µM
[8] = test system: NCI-H460; experiment: Upregulation of Bax protein expression in human NCI-H460 cells at 10 uM by Western blot analysis; type: functional, cell-based
[9] = test system: A549; experiment: Upregulation of Bax/Bcl2 ratio in human A549 cells at 10 to 30 uM by Western blot analysis; type: functional, cell-based; details: dose 10-30 µM
[10] = test system: NCI-H460; experiment: Upregulation of Bax/Bcl2 ratio in human NCI-H460 cells at 10 to 30 uM by Western blot analysis; type: functional, cell-based; details: dose 10-30 µM
[11] = test system: A549; experiment: Inhibition of colony formation in human A549 cells at 10 uM measured after 48 hrs by giemsa staining based analysis relative to control; type: functional
[12] = test system: A549; experiment: Inhibition of colony formation in human A549 cells at 30 uM measured after 48 hrs by giemsa staining based analysis relative to control; type: functional
[13] = test system: NCI-H460; experiment: Inhibition of colony formation in human NCI-H460 cells at 30 uM measured after 48 hrs by giemsa staining based analysis relative to control; type: functional
[14] = test system: A549; experiment: Inhibition of cell migration in human A549 cells at 10 to 30 uM measured after 24 hrs by wound healing assay relative to control; type: functional; details: dose 10-30 µM
[15] = test system: NCI-H460; experiment: Inhibition of cell migration in human NCI-H460 cells at 10 to 30 uM measured after 24 hrs by wound healing assay relative to control; type: functional; details: dose 10-30 µM
[16] = test system: A549; experiment: Downregulation of TRPV1 expression level in human A549 cells at 10 to 30 uM by Western blot analysis; type: functional, cell-based; details: dose 10-30 µM
[17] = test system: NCI-H460; experiment: Downregulation of TRPV1 expression level in human NCI-H460 cells at 10 to 30 uM by Western blot analysis; type: functional, cell-based; details: dose 10-30 µM
[18] = test system: A549; experiment: Downregulation of JNK phosphorylation expression in human A549 cells at 10 to 30 uM by Western blot analysis; type: functional, cell-based; details: dose 10-30 µM
[19] = test system: NCI-H460; experiment: Downregulation of JNK phosphorylation expression in human NCI-H460 cells at 10 to 30 uM by Western blot analysis; type: functional, cell-based; details: dose 10-30 µM
[20] = test system: A549; experiment: Downregulation of ERK phosphorylation expression in human A549 cells at 10 to 30 uM by Western blot analysis; type: functional, cell-based; details: dose 10-30 µM
[21] = test system: NCI-H460; experiment: Downregulation of ERK phosphorylation expression in human NCI-H460 cells at 10 to 30 uM by Western blot analysis; type: functional, cell-based; details: dose 10-30 µM
[22] = test system: A549; experiment: Downregulation of P38 phosphorylation expression in human A549 cells at 10 to 30 uM by Western blot analysis; type: functional, cell-based; details: dose 10-30 µM
[23] = test system: NCI-H460; experiment: Downregulation of P38 phosphorylation expression in human NCI-H460 cells at 10 to 30 uM by Western blot analysis; type: functional, cell-based; details: dose 10-30 µM
[24] = test system: A549; experiment: Downregulation of AKT phosphorylation expression in human A549 cells at 10 to 30 uM by Western blot analysis; type: functional, cell-based; details: dose 10-30 µM
[25] = test system: NCI-H460; experiment: Downregulation of AKT phosphorylation expression in human NCI-H460 cells at 10 to 30 uM by Western blot analysis; type: functional, cell-based; details: dose 10-30 µM
[26] = test system: Lewis lung carcinoma; experiment: Antitumor activity against mouse Lewis lung carcinoma cell line xenografted in C57BL/6 mouse model assessed as reduction in tumor volume at 10 to 20 mg/kg, ip measured every three days for 15 days by vernier caliper analysis; type: functional, organism-based; details: dose 10-20 mg/kg, time 15.0 day
[27] = test system: Lewis lung carcinoma; experiment: Antitumor activity against mouse Lewis lung carcinoma cell line xenografted in C57BL/6 mouse model assessed as reduction in tumor weight at 10 to 20 mg/kg, ip measured every three days for 15 days […]; type: functional, organism-based; details: dose 10-20 mg/kg, time 15.0 day
[28] = test system: Lewis lung carcinoma; experiment: Antitumor activity against mouse Lewis lung carcinoma cell line xenografted in C57BL/6 mouse model assessed as downregulation of CDK1 expression at 10 to 20 mg/kg by Western blot analysis; type: functional, organism-based; details: dose 10-20 mg/kg
[29] = test system: Lewis lung carcinoma; experiment: Antitumor activity against mouse Lewis lung carcinoma cell line xenografted in C57BL/6 mouse model assessed as downregulation of cyclin B1 expression at 10 to 20 mg/kg by Western blot analysis; type: functional, organism-based; details: dose 10-20 mg/kg
[30] = test system: Lewis lung carcinoma; experiment: Antitumor activity against mouse Lewis lung carcinoma cell line xenografted in C57BL/6 mouse model assessed as increase in bax protein expression at 10 to 20 mg/kg by Western blot analysis; type: functional, organism-based; details: dose 10-20 mg/kg
[31] = test system: Lewis lung carcinoma; experiment: Antitumor activity against mouse Lewis lung carcinoma cell line xenografted in C57BL/6 mouse model assessed as decrease in bcl-2 protein expression at 10 to 20 mg/kg by Western blot analysis; type: functional, organism-based; details: dose 10-20 mg/kg
[32] = test system: Lewis lung carcinoma; experiment: Antitumor activity against mouse Lewis lung carcinoma cell line xenografted in C57BL/6 mouse model assessed as increase in Bax/Bcl2 ratio at 10 to 20 mg/kg by Western blot analysis; type: functional, organism-based; details: dose 10-20 mg/kg

Question: With CC(C(=O)NCCC[Se]C(F)(F)F)c1ccc(-c2ccccc2)c(F)c1 (configuration not stated) as the compound, how does the Activity [1] read?
Answer: 17.28%

Question: What about the Activity [2] of the same compound?
Answer: 6.76%

Question: And the Activity [3]?
Answer: Active

Question: And the Activity [4]?
Answer: Active

Question: And the Activity [5]?
Answer: Active

Question: What about the Activity [6] of the same compound?
Answer: Active

Question: And the Activity [7]?
Answer: Active

Question: What about the Activity [8] of the same compound?
Answer: Active

Question: And the Activity [9]?
Answer: Active

Question: And the Activity [10]?
Answer: Active

Question: What about the inhibition at 10 µM [11] of the same compound?
Answer: 45%

Question: What about the inhibition at 30 µM [12] of the same compound?
Answer: 89%

Question: What about the inhibition at 30 µM [13] of the same compound?
Answer: 88%

Question: And the “inhibition (INH)” value [14]?
Answer: 62.9%

Question: And the “inhibition (INH)” value [15]?
Answer: 47.5%

Question: What about the Activity [16] of the same compound?
Answer: Active

Question: What about the Activity [17] of the same compound?
Answer: Active

Question: And the Activity [18]?
Answer: Active

Question: And the Activity [19]?
Answer: Active

Question: What about the Activity [20] of the same compound?
Answer: Active

Question: What about the Activity [21] of the same compound?
Answer: Active

Question: And the Activity [22]?
Answer: Active

Question: And the Activity [23]?
Answer: Active

Question: What about the Activity [24] of the same compound?
Answer: Active

Question: What about the Activity [25] of the same compound?
Answer: Active

Question: And the Activity [26]?
Answer: Active

Question: What about the Activity [27] of the same compound?
Answer: Active

Question: And the Activity [28]?
Answer: Active

Question: What about the Activity [29] of the same compound?
Answer: Active

Question: What about the Activity [30] of the same compound?
Answer: Active

Question: And the Activity [31]?
Answer: Active

Question: What about the Activity [32] of the same compound?
Answer: Active
